Experimental data: US20040171089A1, “High-throughput screening assay for identifying substances capable of modulating cell survival and/or proliferation” (priority 2001, published 2004)
Entries after “also recorded” stand apart in the source; their conditions may differ.

How the values were obtained:
[1] = test system: MDA MB 468 cells; experiment: Fura-2 calcium imaging, MDA MB 468 cells; type: cell-based, human; conditions: for % increase of cytosolic calcium (peak 340/380 nm fura-2 ratio): MDA 468 cells; for effect on cytosolic calcium levels (in words): MDA MB 468 cells, FIG. 2a: IPAG 1-10 μM, rimcazole 10-30 μM, (+)-SKF 10,047 10 μM, (+)-pentazocine 10-30 μM, ibogaine 10-50 μM
Protocol: Human mammary carcinoma (MDA MB 468) cells were obtained from ATCC, Manassas, Va., USA; catalogue number HTB-132; cells were grown in accordance with the manufacturer's instructions.
(§1) For calcium imaging experiments cells were plated onto poly-L-lysine coated coverslips (13 mm). Single cell imaging was performed utilizing a MiraCal Imaging facility (Life Science Resources, Cambridge, U.K.) with a Nikon Diaphot-TMD inverted epifluorescence microscope equipped with a ×40 oil immersion objective and Sutter filter wheel. The imager was equipped with a Lambert intensifier 1187 (Life Sciences Resources) providing a ×30 enhancement of the fluorescent signal, thus limiting phototoxicity.
(§2) Fura-2 acetoxymethyl ester (fura-2 AM) incubations with the cells were performed at 37° C. in a medium containing (in mM): 120 NaCl, 3.5 KCl, 0.4 KH2PO4, 5 NaHCO3, 1.2 Na2SO4, 15 glucose, 1.2 MgCl2, 1 CaCl2, and 20 TES [N-tris(hydroxymethyl) methyl-2-aminoethane sulphonic acid] pH adjusted to 7.4 with NaOH. Typically cells were incubated in 3 μM fura-2 AM for 25 min., which permitted sufficient accumulation of free fura-2 in the cell cytoplasm. Cells were then illuminated alternately at 340 and 380 nm with the emitted 505 nm light being detected by a photomultiplier. Free fura emits maximally when excited at 380 nm, whilst the calcium bound fura has a maximal emission when excited at 340 nm. Thus the ratio of emission when alternately excited at 340/380 nm is a measure of the calcium concentration in equilibrium with the chelator. Changes of intracellular calcium were quantified as the percentage increase of the fluorescent ratio (determined at ˜505 nm) obtained by exciting the test cells alternatively at 340 nm (optimal for calcium bound dye) and 380 nm.

[2] = test system: microvascular endothelial cells; conditions: equimolar, 10 micromolar, GB0007842.8, WO 0174359; cited from earlier work
[3] = test system: human primary microvascular endothelial cells; experiment: Fura-2 calcium imaging, microvascular endothelial cells; type: cell-based; conditions: microvascular endothelial cells; FIG. 2b: IPAG 10 μM, rimcazole 10-30 μM, (+)-pentazocine 10-30 μM
Protocol: Human adult dermal microvascular endothelial cells (catalogue number CC-2543; cells had been characterised by tests for cell type markers: positive for acetylated LDL uptake, positive for factor VIII related antigen, negative for alpha smooth muscle actin)
as §1, §2

[4] = test system: MDA MB 468 cells; experiment: MTS cell viability/proliferation assay, MDA MB 468 cells; type: cell-based, human; conditions: MDA 468 cells; 1-10 μM
Protocol: (§3) This was carried out using an MTS assay (reagents from Promega Corporation, Madison Wis., USA) which is a modification of the MTT assay (as described in Jacobson et al, 1994 EMBO J Vol 13 pp1899-1910). The assay depends on conversion of the MTS tetrazolium compound to a coloured formazan product in metabolically active cells; it is therefore an assay of viable cell number. A decline in values implies cell killing as long as cell disappearance by apoptosis in untreated cell populations is absent or negligible (as with most healthy primary cell populations).
(§4) Cells were seeded in the range 1.5×10^5-1.8×10^5 cells per ml of culture medium in 96 well microtitre plates and allowed to attach in a humidifed atmosphere of 5% CO2 in air at 37 deg C. Drugs were added 18-24 hours later and cell viability/proliferation measured at time intervals up to 48-72 hours post-drug addition when the experiment was terminated. Mean (±SE) values at each time point were obtained from wells in triplicate.
(§5) Cell viability was measured as follows: 20 μl of MTS solution (Promega) was added to wells and incubated at 37 deg C. for 3 hours during which time a coloured formazan product is generated in viable cells. […] Viable cell number was then measured by reading absorbance at 490 nm in a Dynex microtitre plate reader. […]

[5] = test system: mammary epithelial cells; experiment: MTS cell viability/proliferation assay, mammary epithelial cells; type: cell-based, human; conditions: 1-10 μM
Protocol: Human mammary epithelial cells (catalogue number CC-2551; stain positive for cytokeratins 14, 18 and 19)
as §3
as §4, with “Mean (±SE) values at each time point were obtained from wells in triplicate.” left out
as §5

[6] = test system: phospholipase C; experiment: GFP-PH PLCdelta 1 relocalisation (PLC activation) in MDA MB 468 cells; type: cell-based, human; conditions: for relocalisation of GFP-PH PLC delta 1 from membrane to cytosol: 100 μM, approximately 10 minutes, DMEM with 10% fetal bovine serum
From the text: The inventors introduced a recombinant plasmid vector encoding a hybrid protein comprised of the pleckstrin homology (PH) domain of phospholipase C (PLC) delta 1 fused green fluorescent protein (GFP) (GFP-PH PLCdelta 1) into MDA MB 468 mammary carcinoma cells. A standard transfection method (Fugene-6—Roche) was used. […] Cells were maintained in DMEM with 10% fetal bovine serum at 37 deg C. in 5% CO2 before and during exposure to sigma ligands which were present at a range of concentrations. Effects on the GFP-PH PLCdelta 1 protein were studied in two ways: by time lapse microscopy (using a Leica inverted fluorescence microscope and a Hammamatsu Orca charge-coupled device camera, linked to an Improvision Open Lab image processing workstation). This enabled the time course of effects to be determined. […] Control cell populations received drug vehicle alone and were analysed at the same time points.
GFP-PH PLC delta 1—expressing MDA MB 468 cells were exposed to sigma antagonists in 1 mM and 0 mM (nominally calcium-free) buffer (as used for the calcium imaging experiments, described above) and monitored by time lapse imaging as above.

[7] = test system: sigma-1 compared to sigma-2 sites; conditions: Abou-Gharbia et al 1993; cited from earlier work
[8] = test system: human prostate epithelial cells; experiment: MTS cell viability/proliferation assay, prostate epithelial cells; type: cell-based; conditions: 1-10 μM
Protocol: as §3, §4, §5

[9] = test system: phospholipase C; experiment: Quantitative HPLC assay of inositol phosphates (IP3 levels) in MDA MB 468 cells; type: cell-based, human; conditions: [3H] inositol labelled cells
From the text: The PH domain of PLC delta 1 has a higher affinity for the phosphoinositide IP3 compared to PIP2. IP3 is produced from PIP2 in response to activation of PLC. Since PIP2 is membrane-bound whereas IP3 is cytosolic, the activation of PLC can be visualised in living cells by the relocalisation of GFP-PH PLC delta 1 from membrane to cytosol. A proviso to this interpretation is that, in conditions where PIP2 levels decline relative to IP3, the net effect would be relocalisation of GFP-PH PLC delta 1 from membrane to cytosol. Thus, to exclude this possibility, quantitative phospholipid assays were performed. (In this analysis, cells were labelled with [^3H] inositol in inositol-free DMEM (In Vitrogen—Gibco) with dialysed FBS for 48 hours before exposure to sigma ligands. Cells were then lysed and subjected to quantitative HPLC assay). These assays confirmed that IP3 levels had risen in cells exposed to sigma antagonists (IP3 levels had risen to 240% and 166% of the level prior to provision of the test substance in response to IPAG and rimcazole respectively) but had not risen in cells exposed to sigma-1 or sigma-2 agonists. This confirmed activation of PLC by sigma antagonists.

[10] = test system: microvascular endothelial cells; experiment: MTS cell viability/proliferation assay, microvascular endothelial cells; type: cell-based, human; conditions: 1-10 μM
Protocol: as §3, §4, §5

[11] = test system: adult dermal fibroblasts; experiment: MTS cell viability/proliferation assay, adult dermal fibroblasts; type: cell-based, human; conditions: 1-10 μM
Protocol: as §3, §4, §5

With `CC(C)=CCN1CCC2(C)c3cc(O)ccc3CC1C2C` (single isomer, unassigned; (+)) [(+)-pentazocine] as the compound, how does the “% increase of cytosolic calcium (peak 340/380 nm fura-2 ratio)” value ([1]; 10 μM) read?
Its value is 5±7%.

And the “% increase of cytosolic calcium (peak 340/380 nm fura-2 ratio)” value ([1]; 30 μM)?
Its value is −7±6%.

And the “effect on cytosolic calcium levels (in words)” value [1]?
Its value is “little or no rise; also recorded: little or no effect”.

And the “prevention of rimcazole- and IPAG-induced death and cytostasis” value [2]?
Its value is “completely prevented”.

And the “increase in cytosolic calcium” value [3]?
The value was “little or no effect”.

With `C[C@@H]1CN(CCCn2c3ccccc3c3ccccc32)C[C@H](C)N1` [rimcazole] as the compound, how does the Cytotoxicity [4] read?
Its Cytotoxicity is “cytotoxic”.

And the Cytotoxicity [5]?
Its Cytotoxicity is “not cytotoxic”.

And the “% increase of cytosolic calcium (peak 340/380 nm fura-2 ratio)” value ([1]; 30 μM)?
Its value is 92±8%.

What about the “effect on cytosolic calcium levels (in words)” value [1] of the same compound?
Its value is “increase cytosolic calcium levels”.

What about the “relocalisation of GFP-PH PLC delta 1 from membrane to cytosol” value [6] of the same compound?
The value was “pronounced relocalisation”.

What about the “localisation of GFP-PH PLC delta 1” value ([6]; nominally calcium-free buffer (0 mM calcium)) of the same compound?
The value was “remained membrane-localised”.

What about the “selectivity for sigma-1 compared to sigma-2 sites” value [7] of the same compound?
Its value is “approximately 5 fold”.

What about the Cytotoxicity [8] of the same compound?
The Cytotoxicity was “not cytotoxic”.

And the “IP3 levels, % of the level prior to provision of the test substance” value [9]?
Its value is 166%.

What about the Cytotoxicity [10] of the same compound?
The Cytotoxicity was “cytotoxic”.

And the Cytotoxicity [11]?
The Cytotoxicity was “not cytotoxic”.

Which “effect on cytosolic calcium levels (in words)” value [1] does the source give for (+)-SKF 10,047 here?
Its value is “little or no effect”.

What about the “effect on cytosolic calcium levels (in words)” value ([1]; listed as (+)-SKF-10,047) of the same compound?
The value was “little or no rise”.

With ibogaine as the compound, how does the “effect on cytosolic calcium levels (in words)” value [1] read?
The value was “little or no rise; also recorded: fails to induce a significant rise”.

What about the “relocalisation of GFP-PH PLC delta 1 from membrane to cytosol” value [6] of the same compound?
The value was “failed to produce this effect”.
